Common to all, as to type: cell-based
The test system of one assay is Pseudomonas aeruginosa. The assay can be described thus: MIC vs. aerobic bacteria, microplate broth-dilution (BHI). Conditions: UC95, 20 h, Ps. aeruginosa UC 95, read-out: MIC. Here is the method:
(§1) The Minimal Inhibitory Concentration (MIC's) of both compounds Vs. aerobic bacteria is determined using a standard microplate broth-dilution method. Brain Heart Infusion (BHI-Difco) broth medium is used, and the plates are incubated at 37° C. for 20 hrs.

The subject of assay [1] is Salmonella schottmuelleri. The assay is described as above. Conditions: S. schottmuelleri UC 126. Here is the method: as §1
Another assay deals with Klebsiella pneumoniae. The assay is described as above. Conditions: K. pneumoniae UC 58. Here is the method: as §1
A further assay deals with Streptococcus faecalis. The assay is described as above. Conditions: St. faecalis UC 694. Here is the method:
as §1

Another assay concerns Diplococcus pneumoniae. The assay is described as above. Conditions: D. pneumoniae UC 41. Here is the method: as §1
The test system of a further assay is Escherichia coli. Described as above. Conditions: UC45, 20 h, E. coli UC 45, read-out: MIC. Here is the method:
as §1

Another assay has as its system Proteus vulgaris. The description is as above. Conditions: P. vulgaris UC 93. Here is the method:
as §1

A further assay has as its system S. hemolyticus. Kind of assay: MIC, test procedure as given supra. Conditions: S. hemolyticus UC 152. Here is the method: as §1
The Minimal Inhibitory Concentration (MIC's) of a representative number of the compounds prepared in Examples 2-8 follows. The test procedure is as given supra.

The test system of another assay is Staphylococcus aureus. The assay can be described thus: MIC vs. aerobic bacteria, microplate broth-dilution (BHI).
Where [2] appears, read: Klebsiella pneumoniae, UC58, 20 h, read-out: MIC.
The mark [3] stands for this setting: Enterococcus faecalis, UC694, 20 h, read-out: MIC.
[4] abbreviates: Streptococcus pneumoniae, UC41, 20 h, read-out: MIC.
[5] abbreviates: Proteus vulgaris, UC93, 20 h, read-out: MIC.
Where [6] appears, read: Staphylococcus aureus, UC76, 20 h, S. aureus UC 76, read-out: MIC.
Setting [7] is: Staphylococcus aureus, UC570, 20 h, S. aureus UC 570, read-out: MIC.
[8] abbreviates: Staphylococcus aureus, UC746, 20 h, S. aureus UC 746, read-out: MIC.

In brackets after ≈: the same amount, converted by molar mass. Read-outs that look alike come from different tables or passages of the source.

For `CS[C@H]1O[C@H]([C@H](NC(=O)c2ccccn2)[C@@H](C)O)[C@H](O)[C@H](O)[C@H]1O` [U-46,136], the MIC in the assay on Pseudomonas aeruginosa is > 1000 µg/mL; in assay [1] (Salmonella, UC126, 20 h), > 1000 µg/mL; in the assay with Klebsiella pneumoniae (setting [2]) it was > 1000 µg/mL; in the assay with Streptococcus faecalis (setting [3]), > 1000 µg/mL; in the assay with Diplococcus pneumoniae (setting [4]), > 1000 µg/mL; with Escherichia coli, > 1000 µg/mL. Also, the MIC was > 1000 µg/mL in the assay with Proteus vulgaris (setting [5]); 1000 µg/mL (≈ 2790 µM) in the assay with S. hemolyticus (UC152, 20 h, read-out: MIC); > 1000 µg/mL in the assay with Staphylococcus aureus (setting [6]); > 1000 µg/mL in the assay with Staphylococcus aureus (setting [7]); > 1000 µg/mL in the assay on Staphylococcus aureus (setting [8]).

Turning to `CS[C@H]1O[C@H]([C@H](NC(=O)c2ccncc2)[C@H](C)Cl)[C@H](O)[C@H](O)[C@H]1O` [U-46,137], the MIC was 1000 µg/mL (≈ 2650 µM) in the assay on Pseudomonas aeruginosa; 1000 µg/mL (≈ 2650 µM) in [1] (Salmonella, UC126, 20 h); 1000 µg/mL (≈ 2650 µM) with Klebsiella pneumoniae (setting [2]); > 1000 µg/mL with Streptococcus faecalis (setting [3]); 500 µg/mL (≈ 1330 µM) with Diplococcus pneumoniae (setting [4]); 1000 µg/mL (≈ 2650 µM) with Escherichia coli. In addition, the MIC is > 1000 µg/mL with Proteus vulgaris (setting [5]); 1000 µg/mL (≈ 2650 µM) in the assay with S. hemolyticus (UC152, 20 h, read-out: MIC); > 1000 µg/mL in the assay with Staphylococcus aureus (setting [6]); > 1000 µg/mL in the assay on Staphylococcus aureus (setting [7]); > 1000 µg/mL in the assay with Staphylococcus aureus (setting [8]).

Consider `CS[C@H]1O[C@H]([C@H](NC(=O)C2CCCCN2)[C@H](C)Cl)[C@H](O)[C@H](O)[C@H]1O` (stereo partly drawn) [U-46,337], for which the MIC with Pseudomonas aeruginosa is > 1000 µg/mL; in assay [1] (Salmonella, UC126, 20 h) it was > 1000 µg/mL; in the assay on Klebsiella pneumoniae (setting [2]) it was > 1000 µg/mL; against Streptococcus faecalis (listed as 46,337) it was > 1000 µg/mL; with Diplococcus pneumoniae (listed as 46,337), 250 µg/mL (≈ 653 µM); in the assay on Escherichia coli it was > 1000 µg/mL. Besides, the MIC was > 1000 µg/mL with Proteus vulgaris (setting [5]); 250 µg/mL (≈ 653 µM) in the assay with S. hemolyticus (listed as 46,337); 1000 µg/mL (≈ 2610 µM) against Staphylococcus aureus (S. aureus UC 76, listed as 46,337); 1000 µg/mL (≈ 2610 µM) with Staphylococcus aureus (S. aureus UC 570, listed as 46,337); 1000 µg/mL (≈ 2610 µM) against Staphylococcus aureus (S. aureus UC 746, listed as 46,337).

For the compound `CS[C@H]1O[C@H]([C@H](NC(=O)C2CCCCN2)[C@H](C)Cl)[C@H](O)[C@H](O)[C@H]1O` (stereo partly drawn) [U-46,465], the MIC in assay [1] was 1000 µg/mL (≈ 2610 µM); in the assay with Klebsiella pneumoniae it was 500 µg/mL (≈ 1310 µM); in the assay on Streptococcus faecalis (listed as 46,465), 3.9 µg/mL (≈ 10.2 µM); with Diplococcus pneumoniae (listed as 46,465) it was < 1.0 µg/mL; with Proteus vulgaris, 1000 µg/mL (≈ 2610 µM); against S. hemolyticus (listed as 46,465), < 1.0 µg/mL. Further, the MIC with Staphylococcus aureus (S. aureus UC 76, listed as 46,465) amounted to 3.9 µg/mL (≈ 10.2 µM); in the assay on Staphylococcus aureus (S. aureus UC 570, listed as 46,465), 31.2 µg/mL (≈ 81.5 µM); in the assay with Staphylococcus aureus (S. aureus UC 746, listed as 46,465), 3.9 µg/mL (≈ 10.2 µM).

As for `CS[C@H]1O[C@H]([C@H](NC(=O)C2CCCCN2C)[C@H](C)Cl)[C@H](O)[C@H](O)[C@H]1O` (stereo partly drawn) [U-46,699], the MIC was > 1000 µg/mL with Pseudomonas aeruginosa; > 1000 µg/mL in assay [1] (Salmonella, UC126, 20 h); 250 µg/mL (≈ 630 µM) in the assay on Klebsiella pneumoniae (setting [2]); 15.6 µg/mL (≈ 39.3 µM) in the assay with Streptococcus faecalis (setting [3]); < 1 µg/mL with Diplococcus pneumoniae (setting [4]); 1000 µg/mL (≈ 2520 µM) in the assay with Escherichia coli. The MIC is 1000 µg/mL (≈ 2520 µM) with Proteus vulgaris (setting [5]); 3.9 µg/mL (≈ 9.83 µM) in the assay on S. hemolyticus (UC152, 20 h, read-out: MIC); 3.9 µg/mL (≈ 9.83 µM) with Staphylococcus aureus (setting [6]); 7.8 µg/mL (≈ 19.7 µM) with Staphylococcus aureus (setting [7]); 7.8 µg/mL (≈ 19.7 µM) in the assay with Staphylococcus aureus (setting [8]).

With `CS[C@H]1O[C@H]([C@H](NC(=O)C2CCCCN2)[C@@H](C)O)[C@H](O)[C@H](O)[C@H]1O` (stereo partly drawn) [U-60,492], the MIC in the assay on Streptococcus faecalis was > 1000 µg/mL; against Diplococcus pneumoniae, 31.2 µg/mL (≈ 85.6 µM); in the assay on S. hemolyticus, 15.6 µg/mL (≈ 42.8 µM); against Staphylococcus aureus (S. aureus UC 570), > 1000 µg/mL; with Staphylococcus aureus (S. aureus UC 746), 250 µg/mL (≈ 686 µM).

`CS[C@H]1O[C@H]([C@H](NC(=O)C2CCCCN2)[C@@H](C)O)[C@H](O)[C@H](O)[C@H]1O` (stereo partly drawn) [U-60,493]: the MIC in the assay on Pseudomonas aeruginosa was > 1000 µg/mL; in [1] (Salmonella, UC126, 20 h), > 1000 µg/mL; in the assay with Klebsiella pneumoniae (setting [2]), > 1000 µg/mL; with Streptococcus faecalis (setting [3]), 1000 µg/mL (≈ 2740 µM); with Diplococcus pneumoniae (setting [4]), 15.6 µg/mL (≈ 42.8 µM); in the assay with Escherichia coli it was > 1000 µg/mL. In addition, the MIC with Proteus vulgaris (setting [5]) was > 1000 µg/mL; in the assay with S. hemolyticus (UC152, 20 h, read-out: MIC) it was 7.8 µg/mL (≈ 21.4 µM); in the assay with Staphylococcus aureus (setting [6]) it was 1000 µg/mL (≈ 2740 µM); in the assay on Staphylococcus aureus (setting [7]), 1000 µg/mL (≈ 2740 µM); in the assay with Staphylococcus aureus (setting [8]) it was 250 µg/mL (≈ 686 µM).

The values above are taken from US4310660A, “Lincomycin compounds” (The Upjohn Company, priority 1980, dated 1982).
